The source made the active and inactive calls.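 Rule for the calls: active = plate Z score at or below -3, or inhibition of at least 30% at 20 µM; inactive = the rest.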
Test: compounds lowering EGFP fluorescence in F442A cells, dose response, counter-screen for p/CIP destabilizer project (AID 2005);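 note: cells express EGFP alone from a CMV promoter as a counter screen for p/CIP-EGFP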
Details: F442A EGFP cells, EGFP fluorescence, 16 h, stronger effect = higher value

| SMILES | inhibition (EGFP decrease, at 10 µM) [%] | inhibition (at 20 µM) |
| --- | --- | --- |
| Cc1cc(C)n(/N=C/c2ccccc2O)c(=O)c1 | 20.8 | 9.9% (inactive) |
| Cc1ccc(S(=O)(=O)N/N=C(\c2ccccc2)c2cccnc2)cc1 | 5.5 | 21.7% (inactive) |
| O=C(NCc1ccc(Cl)cc1)c1ccc(-c2ccccc2C(F)(F)F)o1 | 16.5 | -4.8% (inactive) |
| CC1CCCCC1NC(=O)c1cn(C)c2ccc(S(=O)(=O)N3CCCC3)cc2c1=O (stereo unspecified) | 12.3 | 6.4% (inactive) |
| CCc1ccc(NC(=O)CCn2c(=O)oc3ccccc32)cc1 | 11.9 | 3.3% (inactive) |
| Cc1cc2c(c(Sc3ccccc3)n1)C(=O)OC2 | -4 | -3.5% (inactive) |
| O=c1cc(O)c2c(=O)n(C3CCCCC3)c3ccccc3c2o1 | 2.1 | 4.6% (inactive) |
| Cc1ccc(OCC(=O)N2CCN(C(=O)c3ccco3)CC2)cc1 | 23.1 | 8.2% (inactive) |
| CCOC(=O)C(OC(=O)c1sc(=S)n(C)c1C)C(C)=O (stereo unspecified) | 27.1 | 35.7% |
| Cc1cc(C)n(C(=O)CNc2ccccc2Cl)n1 | 9 | 23.3% (inactive) |
| COc1c[nH]n(C2CCCCC2)c(=O)c1=O | 6.1 | -8.9% (inactive) |
| Cn1nnnc1SCC(=O)c1cccs1 | 11.4 | 9.9% (inactive) |
| COc1cc(NC(=O)c2ccccc2[N+](=O)[O-])c(C(=O)O)cc1OC | 9.2 | -1.6% (inactive) |
| COc1ccccc1CNS(=O)(=O)c1cccc(S(=O)(=O)N2CCOCC2)c1 | 3.3 | 4.8% (inactive) |
| COC(=O)[C@@H](Cc1c[nH]c2ccccc12)NC(=O)C1CCCN(S(=O)(=O)c2ccc(C)cc2)C1 (stereo partly specified) | -7.3 | 19.7% (inactive) |
| CCOC(=O)N1CCC(NC(=O)C2CCCN(S(=O)(=O)c3cccc4nsnc34)C2)CC1 (stereo unspecified) | 11 | 19% (inactive) |
| CC(C)c1ccc(/C=N/NC(=O)c2cccc(Cl)c2)cc1 | 16.9 | 44.6% |
| CSCCC(NC(=O)C1CCC(C)CC1)C(=O)Nc1ccc(NC(C)=O)cc1 (stereo unspecified) | 24.8 | 18.5% (inactive) |
| COc1ccc(/C=C/C2=NN(Cc3ccccc3)C(=O)CC2)cc1 | 28.1 | 18.7% (inactive) |
| CC(=O)N1[C@H](Cc2ccccc2)C=C[C@]1(C)C(=O)NCc1ccccn1 | -7.6 | 8.7% (inactive) |
| CCCCS(=O)(=O)Nc1ccc2c(c1)ncn2C1CCCCC1 | 27.7 | 13.8% (inactive) |
| CC1CCCCC1NC(=O)CN1C(=O)c2ccccc2S1(=O)=O (stereo unspecified) | -11.2 | 13.6% (inactive) |
| Cc1cc(=O)[nH]c(SCC(=O)O)c1C#N | 24 | 10.9% (inactive) |
| COc1ccc(CNC(=O)C(C)Cc2ccccc2)cc1O (stereo unspecified) | 24.1 | 14.7% (inactive) |
| Cc1cc(/N=C/N(C)C)on1 | 20.8 | -23.7% (inactive) |
| O=C(CCCn1c(=O)c2cccn2c2cccnc21)NCc1cccc(Br)c1 | -13.6 | 2.1% (inactive) |

| SMILES | inhibition (EGFP decrease, at 10 µM) [%] | inhibition (at 20 µM) |
| --- | --- | --- |
| C=CCCC(=O)N1CCCC(C(=O)c2cccc(OC)c2)C1 (stereo unspecified) | 20.8 | 2.3% (inactive) |
| O=C(Nc1nc(-c2ccccc2)cs1)C1CCCCN1S(=O)(=O)c1ccccc1 (stereo unspecified) | 15 | 8.6% (inactive) |
| CC(C(=O)N1c2ccccc2CCc2ccccc21)n1nnc(-c2ccc(N(C)C)cc2)n1 (stereo unspecified) | 15.2 | 6.8% (inactive) |
| O=CN1CCC(=O)N(Cc2ccccc2)c2ccccc21 | 33.4 | 23.1% (inactive) |
| O=C(N/N=C/c1cccc(O)c1)c1ccc(COc2cccc3cccnc23)cc1 | 2.4 | 7.8% (inactive) |
| C/C(=N\NC(=O)c1cccs1)c1c(O)cc(C)oc1=O | 28.7 | 0.8% (inactive) |
| Cc1ccccc1CN1CCC(CNC(=O)Nc2ccc(F)cc2F)CC1 | 25.1 | 20.2% (inactive) |
| COc1ccc(S(=O)(=O)N2CCOC2CNC(=O)C(=O)NCc2ccncc2)cc1 (stereo unspecified) | -30.4 | 8.6% (inactive) |
| Cc1cc(NC(=O)CSCC(=O)OCc2nnc(-c3ccccc3)o2)no1 | -7.9 | -12.8% (inactive) |
| CCOCCc1nnc(NC(=O)CS(=O)(=O)Cc2ccccc2)s1 | 12 | 6% (inactive) |
| CCc1cc2c(NCCC(=O)O)nc(C)nc2s1 | 20.9 | 21% (inactive) |
| CC(C)Cc1ccc(C(C)C(N)=NCCc2ccccc2)cc1 (stereo unspecified) | -6.4 | -4.2% (inactive) |
| Cc1ccccc1CC(=O)Nc1sc(C(C)C)cc1C(=O)N1CCOCC1 | 4.2 | 14.3% (inactive) |
| CCCCN(CC)C(=O)c1cc2cc3ccc(OC)cc3nc2o1 | 23.8 | 25.6% (inactive) |
| O=C(NCCSc1ccccn1)c1ccc(Cl)cc1Cl | 19.7 | 3.4% (inactive) |
| Cc1ccsc1C(=O)OCC(=O)N1CCc2ccccc2C1 | 5 | 13.3% (inactive) |
| CCOC(=O)c1c(C)oc2c(F)c(F)c(F)c(F)c2c1=O | 32.1 | 19.8% (inactive) |
| CN1CCN(C(=O)c2cccc(S(=O)(=O)N3CCCCC3)c2)CC1 | 10.5 | 20.5% (inactive) |
| CCOC(=O)C1CCN(C(=O)c2cc(OCC)c(OCC)c(OCC)c2)CC1 | 10.4 | 24.3% (inactive) |
| CCOc1ccccc1OCc1nn2c(-c3ccc(C)cc3)nnc2s1 | -2 | -2.8% (inactive) |
| CN(c1ccc(C(=O)Nc2ccccn2)cc1)S(=O)(=O)c1ccccc1 | 11.8 | 9% (inactive) |
| C=CCn1c(SCCN2C(=O)c3ccccc3C2=O)nc2scc(-c3ccccc3)c2c1=O | 30.3 | 0.6% (inactive) |
| O=C(CN1CCCCC1)N/N=C/c1cccc(Cl)c1 | 13.5 | 17.4% (inactive) |
| CCC1=C(OC(=O)N(CC)CC)N2C(=O)OC(=NCC3CC3)[C@]2(C)[C@H]2C1=CC[C@H]1C(=O)N(CC)C(=O)[C@H]12 | -7.5 | -27.5% (inactive) |
| Cc1ccccc1-c1cc2c(nn1)-c1ccccc1C2=O | 32.1 | 6.4% (inactive) |
| COc1ccc(CCNC(=O)c2ccncc2)cc1OC | -3.3 | 20.8% (inactive) |

| SMILES | inhibition (EGFP decrease, at 10 µM) [%] | inhibition (at 20 µM) |
| --- | --- | --- |
| O=c1nc2n(c3ccc([N+](=O)[O-])cc13)CCCCC2 | 39 | 29.5% (inactive) |
| COc1ccc(/C=C/C(=O)Nc2cccc(N3CCOCC3)c2)cc1OC | -4.5 | 6.7% (inactive) |
| COC(=O)c1c(NC(=O)c2ccc(C)cc2)sc(Cc2ccccc2)c1C | 29.9 | -2.4% (inactive) |
| COc1ccccc1NC(=O)CSc1nncn1-c1cccnc1 | 4.7 | 8% (inactive) |
| CC(O)CNc1nc2c(c(=O)n(C)c(=O)n2C)n1Cc1cccc(Br)c1 (stereo unspecified) | 24.8 | 12.7% (inactive) |
| CC(CCc1ccccc1)NC(=O)CNC(=O)COc1ccccc1 (stereo unspecified) | -4.8 | 28.2% (inactive) |
| Cc1c(NC(=O)CN2C(=O)NC3(CCC(C)CC3)C2=O)c(=O)n(-c2ccccc2)n1C (stereo unspecified) | 5.2 | 0.8% (inactive) |
| CCN1C(=O)OC2(CCCCC2)C1(C)O (stereo unspecified) | -1.9 | 9% (inactive) |
| CCCCn1c(SCC(=O)NCc2ccco2)nc2c(sc3ccccc32)c1=O | 20.5 | 13.2% (inactive) |
| Cc1ccccc1OC(C)C(=O)Nc1ccc(S(=O)(=O)Nc2nccs2)cc1 (stereo unspecified) | -2.8 | -1.1% (inactive) |
| COc1ccc(CNCCCSc2ncccn2)c(OC)c1 | 11.1 | 16.3% (inactive) |
| O=C1C2C3C=CC(C2C(=O)N1c1cccc(O)c1)C1C2C(=O)N(c4cccc(O)c4)C(=O)C2C31 (stereo unspecified) | -3 | 12.3% (inactive) |
| CCOC(=O)N1CCN(S(=O)(=O)c2cc(OCC)ccc2OCC)CC1 | -19.2 | 5.4% (inactive) |
| CCN1CCN(c2cc(C)c3cc(NC(=S)N4CC(C)CC(C)C4)ccc3n2)CC1 (stereo unspecified) | 28.8 | 12.7% (inactive) |
| CC(=O)Nc1ccc(NC2=C(Cl)C(=O)c3ccccc3C2=O)cc1 | 3 | 0.6% (inactive) |
| CCc1cccc(C)c1NC(=O)CCNC(=O)c1cccc(C)c1 | 12.2 | 12.9% (inactive) |
| O=c1c2ccccc2nc(-c2ccccc2)n1-c1ccncc1 | -29.4 | 24.7% (inactive) |
| CC(NC(=O)CN(C)CC(=O)Nc1ccc(F)c(F)c1F)c1ccccc1 (stereo unspecified) | 8 | -8.6% (inactive) |
| CN(C(=O)c1ccc2c(c1)CCN2S(C)(=O)=O)c1ccccc1 | -5.5 | -19.7% (inactive) |
| COc1ccc(NC(=O)N2CCn3c2nc2ccccc23)cc1 | 17.9 | 30.9% |
| CCOC(=O)CSc1nc2ccccc2c(=O)n1CCCCCC(=O)NCc1ccco1 | 8.4 | 5.8% (inactive) |
| O=C(CC12CC3CC(CC(C3)C1)C2)NCCN1CCOCC1 | 9.3 | 25.4% (inactive) |
| COCCC(=O)N1CCC(Oc2ccc(C(=O)N3CCCCCCC3)cc2)CC1 | 1.3 | 14% (inactive) |
| CC(Oc1ccc(Cl)cc1)C(=O)NCC1CCCO1 (stereo unspecified) | 20.8 | -7.4% (inactive) |
| CCCc1nnc(NC(=O)C2CCN(C(=O)C3CC(=O)N(c4ccc(C)cc4)C3)CC2)s1 (stereo unspecified) | 13.9 | 14.4% (inactive) |
| CCn1c(COc2ccc(=O)n(-c3ccccc3)n2)nnc1SCc1ccccc1C | 4.8 | 20.9% (inactive) |
